Data as given in PubChem BioAssay (NCI).
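Exposure lasted 48 hours, with cells grown in 96-well plates and compounds tested at five concentrations. At the GI50, growth is halved. The concentration for full growth arrest is given as TGI.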

Columns and labels:
Experiment in all cases: DTP human tumour cell line panel, 48 h
[1] = system: DU-145 prostate
[2] = system: HCT-15 colon
[3] = system: MDA-MB-231 breast
[4] = system: NCI-H460 lung
[5] = system: OVCAR-5 ovarian
[6] = system: SN12C renal
[7] = system: SW-620 colon
[8] = system: T-47D breast
[9] = system: TK-10 renal
[10] = system: UO-31 renal

Row | Compound | GI50 [1] | TGI [1] | GI50 [2] | TGI [2] | GI50 [3] | TGI [3] | GI50 [4] | TGI [4] | GI50 [5] | TGI [5] | GI50 [6] | TGI [6] | GI50 [7] | TGI [7] | GI50 [8] | TGI [8] | GI50 [9] | TGI [9] | GI50 [10] | TGI [10]
1 | CN(CCCCCl)P(=O)(OCCS(=O)(=O)CC(NC(=O)CCC(N)C(=O)O)C(=O)NC(C(=O)O)c1ccccc1)OCC1OC(n2ccc(N)nc2=O)C(O)C1O (stereo unspecified) | 9.1 µM | > 75 µM | > 75 µM | > 75 µM | > 75 µM | > 75 µM | 6.4 µM | > 75 µM | > 26.1 µM | > 75 µM | > 60 µM | > 75 µM | > 44.9 µM | > 75 µM | 23.1 µM | > 75 µM | 73.4 µM | > 75 µM | 8.17 µM | > 59.7 µM
2 | CO[C@@H]1C=C[C@@]23c4cc5c(cc4CN(C[C@@H]2O)[C@H]3C1)OCO5 |  |  |  | > 100 µM |  |  |  | > 100 µM |  | > 100 µM |  | 87.9 µM |  | > 100 µM |  |  |  | > 100 µM |  | 62.2 µM
3 | CC(=O)/C(=C/c1ccccc1)C(=O)CC(C)C | 14.4 µM | 28 µM | 4.69 µM | 22.3 µM | 18.2 µM | 41.1 µM | 17.5 µM | 38.5 µM | 17.7 µM | 41.6 µM | 14.3 µM | 39 µM | 2.14 µM | 4.63 µM | 24 µM | 91.9 µM | 23.9 µM | 50.5 µM | 10.5 µM | 22.6 µM
4 | Cc1cccc(-n2c(N)c(-c3nc4ccccc4[nH]3)sc2=S)c1 |  |  |  | 62.3 µM |  |  |  |  |  | > 100 µM |  | 86.9 µM |  | 99.2 µM |  |  |  | 68.5 µM |  | 87.8 µM
5 | N/N=C1\C(=O)N(Cc2ccccc2)C(=O)C1C(=O)NCc1ccccc1 (stereo unspecified) |  |  |  | > 100 µM |  |  |  | > 100 µM |  | > 100 µM |  | > 100 µM |  | > 100 µM |  |  |  | > 100 µM |  | > 100 µM
6 | COc1cc2c3cc1Oc1c(OC)c(OC)cc4c1C(=NCC4)Cc1ccc(cc1)Oc1cc(ccc1O)C[C@H]3N(C)CC2 |  | > 100 µM |  | 25.9 µM |  | 27.8 µM |  | 39.9 µM |  | > 100 µM |  | 75.2 µM |  | 36.7 µM |  | 40.4 µM |  | 43.1 µM |  | 
7 | O=C(CCl)NCCNc1nccc(Nc2ccc(S(=O)(=O)Nc3ccccn3)cc2)n1 | 2.45 µM | 12.3 µM | 1.62 µM | 4.38 µM | 2.9 µM | 9.98 µM | 2.39 µM | 7.22 µM | 2.28 µM | 5.1 µM | 2.85 µM | 11.1 µM | 2.49 µM | 7.27 µM | 1.9 µM | 8.33 µM | 3.04 µM | 10.3 µM | 2.77 µM | 10 µM
8 | COC(=O)c1ccccc1N(C(=O)c1ccccc1)c1ccccc1C |  |  |  | > 100 µM |  |  |  | > 100 µM |  | > 100 µM |  | > 100 µM |  | > 100 µM |  |  |  | > 100 µM |  | > 100 µM
9 | COc1cc(-c2nccc3cc(OC)c(OC)cc23)ccc1O |  |  |  | 96.1 µM |  |  |  | > 100 µM |  | > 100 µM |  | > 100 µM |  | > 100 µM |  |  |  | > 100 µM |  | > 100 µM
10 | COc1ccc(/C(=N\NC(=O)NN)C(c2ccc(OC)cc2)C2(O)C(=O)Nc3c(Cl)cc(Cl)cc32)cc1 (stereo unspecified) |  |  |  |  |  |  |  | > 100 µM |  | > 100 µM |  | > 100 µM |  | > 100 µM |  |  |  | > 100 µM |  | > 100 µM
11 | N#CC12CCC1C1CCCCC12N1CCSCC1 (stereo unspecified) |  |  |  | > 100 µM |  |  |  | > 100 µM |  |  |  | > 100 µM |  | > 100 µM |  |  |  |  |  | > 100 µM
12 | Cc1n[nH]c(=S)n(C)c1=S |  |  |  | > 100 µM |  |  |  | > 100 µM |  | > 100 µM |  | > 100 µM |  | > 100 µM |  |  |  | > 100 µM |  | > 100 µM
13 | N#CC(C(=O)C(=O)Nc1ccccc1)c1ccccc1 (stereo unspecified) |  |  |  | > 100 µM |  |  |  |  |  |  |  | > 100 µM |  | > 100 µM |  |  |  | > 100 µM |  | > 100 µM
14 | O=S(=O)(CCN1CCOCC1)Nc1cc(-c2ccc3ncnc(Nc4ccc(F)c(Cl)c4)c3c2)cnc1Cl | 0.869 µM | 25.6 µM | 1.23 µM | 28.9 µM | 1.09 µM | 4.82 µM | 1.56 µM | 19.6 µM | 0.492 µM | > 100 µM | 0.391 µM | > 100 µM | 1.3 µM | 15.8 µM | 0.07 µM | 0.975 µM |  |  | 0.267 µM | 2.13 µM
15 | Cc1ccc(-c2nc3ccccc3c(=O)n2NCC2(O)OCC(O)C(O)C2O)cc1 (stereo unspecified) |  |  |  | > 100 µM |  |  |  | > 100 µM |  | > 100 µM |  | > 100 µM |  | > 100 µM |  |  |  |  |  | > 100 µM
16 | CCOC(=O)C(=O)Nc1nc2c(OCC)cccc2s1 |  |  |  | > 100 µM |  |  |  | > 100 µM |  | > 100 µM |  | > 100 µM |  | > 100 µM |  |  |  | > 100 µM |  | > 100 µM
17 | C=C(CO)CC(O)c1cc(OC)ccc1OC (stereo unspecified) |  |  |  | > 100 µM |  |  |  | > 100 µM |  | > 100 µM |  | > 100 µM |  | > 100 µM |  |  |  | > 100 µM |  | > 100 µM
18 | N#Cc1ccc(Cc2ccccn2)cc1Cl |  |  |  |  |  |  |  | > 100 µM |  | > 100 µM |  | > 100 µM |  | > 100 µM |  |  |  | > 100 µM |  | > 100 µM
19 | CCC[CH2][Sn]([CH2]CCC)([O]c1cccc2cccnc12)[O]c1cccc2cccnc12 |  |  | 0.167 µM | 0.339 µM |  |  | 0.382 µM | 1.17 µM |  |  | 0.177 µM | 0.403 µM | 0.179 µM | 0.429 µM |  |  | 0.492 µM | 1.66 µM | 0.265 µM | 0.528 µM
20 | O=C(Nc1cccc2c1C(=O)c1c(NC(=O)c3ccccc3)ccc(Nc3cccc4c3C(=O)c3ccccc3C4=O)c1C2=O)c1ccccc1 |  |  |  | > 100 µM |  |  |  | > 100 µM |  |  |  | > 100 µM |  | > 100 µM |  |  |  | > 100 µM |  | > 100 µM
21 | O=C(/C=C\c1cccc2ccccc12)c1ccc(F)cc1 |  |  |  | 31.8 µM |  |  |  | 33.2 µM |  | 33.2 µM |  | 32.3 µM |  | 20.4 µM |  |  |  | 37.4 µM |  | 32.4 µM
22 | COc1ccc(/C=C2\CN(C(=O)C(Cl)Cl)C/C(=C\c3ccc(OC)cc3)C2=O)cc1 |  |  | 0.337 µM | 1.52 µM |  |  |  |  |  |  |  |  | 0.351 µM | 1.78 µM |  |  |  |  | 1.33 µM | 2.61 µM
